Data on 1 substance can be found in patent publication US20090011438A1, “Collagen VI and Cancer” (priority 2004, published 2009).

Assay type in all cases: cell-based
One experiment concerns Tcf/Lef. The experiment can be described thus: TOP FLASH (Tcf/Lef) reporter luciferase assay. The note with it: MCF-7 cells, 30 μg/ml, 12 hours, vs vehicle. The protocol:
(§1) FIG. 4 is graphs and a photograph showing that collagen VI stabilizes β-catenin and cyclin D1. […] A TCF/LEF luciferase reporter construct was transfected into MCF-7 cells and luciferase activity was analyzed after treatment either were vehicle (PBS; black bars), collagen VI (30 μg/ml; white bars) or collagen 1 (30 μg/ml; gray bars) in DME-BSA. […] The serum free medium used in the chase contained vehicle, collagen VI (30 μg/ml) or collagen 1 (30 μg/ml). After each time point, immunoprecipitations were performed for β-catenin and analyzed by SDS-PAGE followed by quantitation of β-catenin at each time point. […] MCF-7 cells were exposed for 3 hours to vehicle, human collagen VI (30 μg/ml) or collagen I (30 μg/ml). Cells were then lysed and analyzed for cyclin D1 by western blot analysis. […] Panel D is a photograph of a western blot showing that collagen VI acts in part through NG2 in MCF-7 cells to stabilize cyclin D1. […] Results are shown as the MEAN±SEM in all cases.
Luciferase Assays. […] Two days prior to the luciferase readout, cells were transiently transfected with the TOPFLASH (contains 4 Tcf/Lef binding elements) luciferase promoter construct as well as a thymidine kinase driven renilla luciferase construct as a transfection control vector (Promega, Madison, Wis.) (Albanese et al., 2003). […]

Another experiment has as its system β-catenin. Kind of experiment: Metabolic labeling pulse/chase of β-catenin. The note with it: MCF-7 cells, 30 μg/ml, chase 30 min to 2 hrs. The protocol: as §1
Metabolic Labeling for β-catenin. MCF-7 cells, seeded in 6-well plates, were treated in methionine/cysteine deficient DMEM for 1 hour. […]
Collagen VI prevents degradation of endogenous β-catenin in MCF-7 cells. […] To test this, β-catenin levels were monitored over the course of several hours after a pulse/chase reaction. […]

For the next experiment, the system named is cyclin D1. Kind of experiment: Cyclin D1 levels by western blot. Conditions: MCF-7 cells, treated five hours, vs vehicle. The protocol: FIG. 4 is graphs and a photograph showing that collagen VI stabilizes β-catenin and cyclin D1. […] A TCF/LEF luciferase reporter construct was transfected into MCF-7 cells and luciferase activity was analyzed after treatment either were vehicle (PBS; black bars), collagen VI (30 μg/ml; white bars) or collagen 1 (30 μg/ml; gray bars) in DME-BSA. […] The serum free medium used in the chase contained vehicle, collagen VI (30 μg/ml) or collagen 1 (30 μg/ml). After each time point, immunoprecipitations were performed for β-catenin and analyzed by SDS-PAGE followed by quantitation of β-catenin at each time point. […] Cells were then lysed and analyzed for cyclin D1 by western blot analysis. […] Panel D is a photograph of a western blot showing that collagen VI acts in part through NG2 in MCF-7 cells to stabilize cyclin D1. […] Results are shown as the MEAN±SEM in all cases.
Immunoblotting. Separation of proteins by sodium dodecyl sulfate (SDS)-poly acrylamide gel electrophoresis (PAGE) fluorography, and immunoblotting were performed as previously described (Scherer et al., 1994). […]
Collagen VI increases cyclin D1 protein stability through NG2/CSPG. […] MCF-7 cells pretreated with the αNG2/CSPG antibody were exposed to collagen VI protein, and cyclin D1 levels were monitored. […]
(Immunoblotting shows a protein as a band on a membrane.)

In the case of “collagen I: Human collagen I obtained from Collaborative Biomedical Products; comparison protein”, the “induction of Tcf/Lef activity” value in the experiment with Tcf/Lef was “did not activate”. For the same substance, the “degradation of 35S-labeled β-catenin” value in the experiment on β-catenin was “marginal stabilization”. Moreover, in the experiment with cyclin D1, the “cyclin D1 levels” value was “no significant change”.
